Test results: patent US9375450B2, “Vaginal tissue rejuvenation compositions and methods” (priority 2011, dated 2016)

Assays:
[1] = tested on: primary vaginal smooth muscle cells; assay: MTT proliferation assay; type: cell-based, human; conditions: mean±SD
Procedure: After removal of the uterus, full-thickness samples of the anterior vaginal wall were obtained from the vaginal cuff at the anterior midline portion under sterile condition from four women without POP. Specimens were preserved in cold DMEM/F12 (Invitrogen, Carlsbad, Calif.) supplemented with 10% FBS, 1 mM glutamine, 0.075% Na2HCO3 and 100 ug/ml penicillin-streptomycin. After a maximum time of 4 hours from tissue harvesting the tissue was mechanically minced in cold cultured media and the fragments were washed 3 times in PBS and were plated onto fibronectin coated plastic dishes (Thermo Fischer Scientific, Rochester, N.Y.). After the initial outgrowth, clones with a morphology resembling the smooth muscle phenotype were patch cloned and propagated in culture. For cell characterization a 5000 cell/well fibronectin coated 8-well chamber slide was plated. Once cell confluence reached 80% the cells were washed twice with PBS and fixed in 4% PFA for 30 min at 37° C. To verify the intracytoplasmic distribution of F-actin fibers 4% PFA fixed cells were exposed to a permeabilizing solution of Tryton X100 0.1% and Rhodamine Phalloidin for 45 min at 37° C. Slides were then treated with mounting media (Vectashield, Vector Laboratories, Burlingame, Calif.) containing DAPI for nucleic acid staining and image acquisition was performed in glycerol immersion by confocal microscopy. In addition, the 8-well chamber slides were used to carry out the immunocytochemical staining. After blockage of endogenous peroxidase activity with a solution of hydrogen peroxide and methanol, slides were sequentially treated with the primary mouse antibody, biotinylated anti-mouse immunoglobulin, and Streptavidin-biotin-peroxidase complex (LSAB™+/HRP kit, Dako, Carpinteria, Calif.). Diaminobenzidine was used as a chromogen in the presence of hydrogen peroxide. Slides were then counterstained with hematoxylin. All reactions were carried out at room temperature (22° C.). To identify the SMC, anti-smooth muscle actin antibodies were used (monoclonal mouse, 1:250, 30 min incubation, clone 1A4, catalog #0851 Dako, Carpinteria, Calif.). Caldesmon expression was studied with a monoclonal mouse antibody, 1:100, 30 min incubation, (clone h-CD catalog #M3557 Dako, Carpinteria, Calif.). An antigen retrieval step was used for caldesmon using citrate buffer and a steamer for 30 min. As a negative control normal mouse serum was substituted for the antibody.
To perform the MTT proliferation assay, SMC from the fourth to sixth passages (5,000 cells per well) were cultured in 96-well culture plates (Costar, Cambridge, Mass.), in a total volume of 200 μL DMEM/F-12 with 10% FBS. Cells were incubated with zinc sulfate heptahydrate (Sigma, Saint Louis, Mo.) (10 μM, 20 μM and 50 μM), GW501516 (Alexis, Switzerland) (1 nM, 10 nM, 100 nM) in 96-well plates and cell proliferation was assessed by a 3-[4,5-dimethylthiazol-2-yl]-2,5-diphenyl tetrazoliumbromide (MTT) assay at 24 or 48 hrs utilizing a commercially available MTT assay kit (American Type Culture Collection, Catalog #30-1010K, Manassas, Va.). Treatment and control groups were performed in 6 replicate wells. The relative number of viable cells was determined at 24 or 48 hours by incubating the cells with 1 mg/mL of MTT for 4 hours. The live cells utilized MTT resulting in the accumulation of formazan crystals which were then solubilized with acid isopropanol (90% isopropyl alcohol, 2.5% SDS, 0.004 N HCL) for 1 hour. The optical density of the solution was measured at 570 nm.

[2] = tested on: ovariectomized (OVX) Sprague-Dawley rats; assay: Vaginal histology and histomorphometry after 2 weeks vaginal suppositories; type: in vivo, rat; conditions: vaginal suppositories 2 weeks; for vaginal epithelial thickness / vaginal muscularis thickness / vaginal lamina propria thickness / vaginal thickness (all three layers of the vagina) / lamina propria collagen fiber compactness: mean±SD; for vaginal epithelial thickness: placebo 57±18; for vaginal muscularis thickness: placebo 121±44; for vaginal lamina propria thickness: placebo 179±71; for vaginal thickness (all three layers of the vagina): placebo 358±86; for vaginal epithelial cornification rate: placebo 0%; for lamina propria collagen fiber compactness: scale 0-5 (0=loose, 5=tight), placebo 4.5±0.6
Procedure: Ten to 12-weeks old female ovariectomized (OVX) Sprague-Dawley rats were utilized for the experiments. The animals were acclimatized to the environmental conditions before starting the experiment. The animals were housed individually and were allowed free access to water and rodent food. […] The suppositories were prepared according to the fusion method, using a polypeg suppository base ([…]., USA). […] Using a microwave, the suppository base was melted in a small beaker for 3 min and then transferred and kept into a water bath at a temperature of 55° C. The proper amount of above reagent was added to the liquefied base and meticulously crushed with a smooth rounded-end glass rod for about 20 min to make the solution to be even and clear. A pipette tip was used to suck some amount of solution and push it into a plastic tube with a diameter of 3.5 mm, and the tube was immediately left on the flat surface of an ice bucket. The suppository turned to white in color when it was solid. The moulded suppository was then pushed out of the tube using a round rod. […] After 30 min of cooling at room temperature, the suppositories were stored at 4° C. in a closed chamber until use. They were left to reach room temperature before use. The day after the last treatment the rats were overnight fasted and then sacrificed. Macroscopic measurement (genital hiatus, vaginal length) were taken and the vagina was dissected out carefully to avoid any injury to the vagina. The mid section of the vagina was utilized for histology (H and E stain, Masson's trichrome stain) and immunofluorescence and the rest of the vagina was used for RNA extraction and RT-PCR. […] For each animal, a 4 μm-thick paraffin section was cut and stained with haematoxylineosin and with Masson's trichrome stain for morphological examination. […] The cornification was determined by the presence of a keratin layer on the vaginal epithelium. Measurements of the different vaginal layers were performed on the fifth segment of the vagina, which is approximately halfway between the middle region and the portio vaginalis uteri. […] Images were captured with a color digital camera and quantified using ImageJ software was used. […] The thickness of the lamina propria was obtained by deducting the thickness of the epithelium and muscularis from total vaginal thickness.

Row | Compound | relative cell number (% of control) ([1]; 1 nM, 24 hrs of culture) | relative cell number (% of control) ([1]; 10 nM, 24 hrs of culture) | relative cell number (% of control) ([1]; 100 nM, 24 hrs of culture) | vaginal epithelial thickness [2] [μm] | vaginal muscularis thickness [2] [μm] | vaginal lamina propria thickness [2] [μm] | vaginal thickness (all three layers of the vagina) [2] [μm] | vaginal epithelial cornification rate [2] [%] | lamina propria collagen fiber compactness [2] [relative units] | relative cell number (% of control) ([1]; 10 μM, 48 hrs of culture) | relative cell number (% of control) ([1]; 20 μM, 48 hrs of culture) | relative cell number (% of control) ([1]; 50 μM, 48 hrs of culture)
1 | Cc1cc(SCc2sc(-c3ccc(C(F)(F)F)cc3)nc2C)ccc1OCC(=O)O [GW501516, 2-[2-methyl-4-([4-methyl-2-[4-(trifluoromethyl)phenyl)-1,3-thiazol-5-yl]methylsulfanyl]phenoxy]acetic acid] | 98.9±10.3 % of control | 95.9±6.5 % of control | 87.0±10.6 % of control | 54±23 | 130±50 | 192±68 | 377±98 | 25 | 4.0±0.5 | – | – | –
2 | O.O.O.O.O.O.O.O=S(=O)([O-])[O-].[Zn+2] [zinc sulfate, zinc sulfate heptahydrate] | – | – | – | 79±21 | 155±58 | 242±78 | 477±106 | 87 | 3.5±0.5 | 94.7±4.6 % of control | 90.4±5.5 % of control | 43.3±30.0 % of control
